From ChEMBL document CHEMBL1121555, “Quantitative structure-selectivity relationships. Comparison of the inhibition of Escherichia coli and bovine liver dihydrofolate reductase by 5-(substituted-benzyl)-2,4-diaminopyrimidines” (J Med Chem, 1980)

Key:
[1] = Compound was evaluated for the partition coefficients probably at the […] at the aqueous phase 0.1 N HCl; format: physicochemical; conditions: 0.1 N HCl (aqueous phase)
[2] = Compound was evaluated for the partition coefficients probably at the pH >> 7.2 at the aqueous phase 0.1 N NaOH; conditions: 0.1 N NaOH (aqueous phase)

| logD [1] | logD [2] | SMILES |
| --- | --- | --- |
| -0.92 |  | COc1cccc(Cc2cnc(N)nc2N)c1 |
| 0.53 |  | Nc1ncc(Cc2cccc(OCc3ccccc3)c2)c(N)n1 |
| -1.03 | 1.58 | Nc1ncc(Cc2ccccc2)c(N)n1 |
| -0.8 |  | Nc1ncc(Cc2cccc(F)c2)c(N)n1 |
| -0.36 |  | Nc1ncc(Cc2cccc(Cl)c2)c(N)n1 |
| -0.51 |  | Cc1cccc(Cc2cnc(N)nc2N)c1 |
| -1.94 |  | CC(=O)Nc1ccc(Cc2cnc(N)nc2N)cc1 |
| -1.03 |  | Nc1ncc(Cc2ccc([N+](=O)[O-])cc2)c(N)n1 |
